Each structure is given as a SMILES string. “And” between values parts separate entries of the source, which are not always exact repeats. Equal entries are not always repeated. Structures can show the parent of a compound that is named as a salt. Where two headings read alike, the source gives them in different places.

As usually defined, the Kd is a measure of binding affinity in units of concentration. As usually defined, the Ki is a measure of affinity in units of concentration, obtained from inhibition or displacement.

Data set [1] has as its target T1, serotonin transporter (Rattus norvegicus, UniProt P31652).
T1 construct: Cerebral cortical membranes derived from male Wistar rats; from tissue; host or cells: cerebral cortical membranes of male Wistar rats
The experiment in a line: serotonin transporter assay, [125I]-RTI-121, rat cerebral cortical membranes. Format: binding.

The target of data set [2] is glutamate receptor, NMDA agonist site. To be noted: cited from earlier work.
Data set [3] can be described thus: stability. Format: physicochemical. The conditions noted are these: our data. An excerpt:
Some botanicals, such as St. John's Wort, are both temperature and light sensitive. For this type of botanical the material should be dry packed with a refrigerant or shipped under refrigeration and protected from light and air. […] Stability (in absence of air) was increased to six months in a preparation extracted with ethanol.
Phloroglucinola include hyperforin (prenylated derivative of phloroglucinol), adhyperforin (similar to the bitter principle of hops, adhumulone).

In data set [4] the test system is herpes simplex. To be noted: cited from earlier work.
In data set [5] the test system is human immunodeficiency virus type 1 (HIV-1). To be noted: cited from earlier work.
In data set [6] the test system is murine cytomegalovirus. To be noted: cited from earlier work.
Data set [7] deals with Sindbis virus. To be noted: cited from earlier work.
For data set [8], the system named is equine infectious anemia virus. The conditions noted are these: cited from earlier work.
The target of data set [9] is protein kinase C. The conditions noted are these: cited from earlier work.
Data set [10] has as its target monoamine oxidase B. As to the kind of experiment: MAO-B enzyme activity, rat liver mitochondrial fraction, [3H]dopamine. Format: biochemical. To be noted: read-out: MAOB (concentration). The procedure: MAO-B enzyme activity is assayed in a mitochondrial fraction isolated from rat liver by differential centrifugation. […] Following 20 minutes incubation at 37° C., the reaction is terminated by the addition of 5% HCl. The radioactivity of [^3 H]dopamine in an extraction was determined.

For data set [11], the system named is adenosine receptor. As to the kind of experiment: adenosine receptor non-selective (ADNS), [3H] NECA, bovine striatal membranes. The class given is binding. The conditions noted are these: for ADNS: 10^-4, 60 min, 100 µM. How it is done:
To determine the inhibitory activity of the substances for the dopamine receptor (dp) the following assay was preformed. A partial receptor preparation was prepared from bovine striatal membranes using [^3 H] spiperone as the ligand at a final concentration of 0.3 nM. To determine non-specific binding cold spiperone was tested at 1 μM. The reactions were carried out in 50 mM Tris-HCl (pH 7.7) containing 120 mM NaCl, 5 mM KCl, 2 mM CaCl2 and 1 mM MgCl2 at 37° C. for 60 minutes. […] The inhibitory properties of the substances for binding of ligand to the adenosine receptor (ADNS) was measured using a partially purified receptor preparation made from bovine striatal membranes. The radioligand used was [^3 H] 5'-N-ethylcarboxyamidoadenosine (NECA) at a final ligand concentration of 4 nM. Non-specific binding was determined in the presence of 10 μM NECA. The reactions were carried out in 50 mM Tris-HCL (pH 7.7) for 60 minutes at 25° C. […] To measure the inhibitory activity of the substances for the opiate receptor (Opiate) receptor was partially purified from rat forebrains. [^3 H] naloxone at 1 nM as the ligand used. Non-specific binding was determined in the presence of 1 μM of naloxone. The assays were carried out in 50 mM Tris-HCl (pH 7.4) at 25° C. for 90 minutes. […] The neuronal nicotinic receptor (Nicotinic Neuronal) was assayed using receptors partially purified from rat cortical membranes. The radioligand used was [^3 H] N-methylcarbamylcholine iodide at a final ligand concentration of 5 nM. Non-specific binding was determined in the presence of 1 μM nicotine sulfate. The assay reactions were carried out in 50 mM Tris-HCl (pH 7.4) containing 120 mM NaCl, 5 mM KCl, 2 mM CaCl2, 1 mM MgCl2, and 3 μM atropine sulfate at 4° C. for 60 minutes. […] To determine how the substances inhibit the corticotropin releasing factor (CRF) partially purified receptor from rat cortical membranes was used as the receptor preparation. […] Tyr-° CRF at a final ligand concentration of 0.1 nM. Non-specific binding was determined in the presence of 1 μM Tyr-° CRF. The reactions were carried out in 50 mM HEPES containing 10 mM MgCl2, 2 mM EGTA, 0.12 TIU/ml aprotinin and 0.3% BSA at 25° C. for 120 minutes. The reaction is terminated by centrifugation in a Sorvall centrifuge for 15 minutes at 4° C.

The test system of data set [12] is muscarinic receptor for the central nervous system. The experiment in a line: muscarinic receptor for the central nervous system (M1 Central), [3H] QNB, rat cortical membranes. The class given is binding. To be noted: 10^-4; 100 µM. The procedure:
Fourteen additional bioassays were preformed on either extracts, fractions or reference compounds for this botanical. To measure inhibition of [^3 H] PK11195 to the benzodiazepine receptor (BDZ) a partially purified receptor preparation was made from rat kidney membranes. The final radioactive ligand concentration was 1 nM and non-specific binding was measured using 200 nM cold PK11195. The substances, receptor and ligand were reacted in 50 mM Tris-HCL (pH 7.7) at 0-4° C. for 60 minutes. The reaction was terminated by rapid filtration of the samples through glass fiber filters. […] The inhibition of [^3 H] pinrenzepine to the muscarinic M1 receptor (M1) by the substances was measured using a partially purified receptor from bovine striatal membranes. The final hot ligand concentration was 1 nM and non-specific binding was determined in the presence of 100 nM atropine. […] The reactions were terminated by rapid vacuum filtration of the reaction mixture through glass fiber filters. […] To assay for biological activity for the muscarinic receptor for the central nervous system, receptor was partially purified from rat cortical membranes. […] Non-specific binding was determined in the presence of 100 nM atropine. […] Non-specific binding was determined using 1 mM NMDA. […] Non-specific binding was determined using 100 μM AMPA.

Data set [13] addresses T2, MAOA (Rattus norvegicus, UniProt P21396).
T2 sequence (P21396 1-526): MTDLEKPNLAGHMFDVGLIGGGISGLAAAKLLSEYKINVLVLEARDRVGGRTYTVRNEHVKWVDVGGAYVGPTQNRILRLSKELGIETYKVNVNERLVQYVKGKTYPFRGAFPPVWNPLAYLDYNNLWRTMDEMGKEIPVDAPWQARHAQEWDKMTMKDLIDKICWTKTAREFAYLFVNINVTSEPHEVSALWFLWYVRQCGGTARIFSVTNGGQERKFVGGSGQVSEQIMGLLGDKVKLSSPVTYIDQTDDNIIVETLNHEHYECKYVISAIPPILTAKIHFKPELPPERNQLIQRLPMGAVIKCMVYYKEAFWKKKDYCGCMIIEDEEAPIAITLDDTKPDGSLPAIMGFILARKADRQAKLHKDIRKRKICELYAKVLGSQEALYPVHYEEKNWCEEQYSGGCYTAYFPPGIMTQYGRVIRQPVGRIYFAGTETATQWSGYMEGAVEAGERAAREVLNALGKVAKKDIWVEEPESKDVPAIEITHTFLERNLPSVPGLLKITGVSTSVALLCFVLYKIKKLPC
The experiment in a line: MAOA enzymatic activity, rat liver mitochondrial membranes, [14C] serotonin. The class given is biochemical. Set-up: using rat liver mitochondrial membranes as a partially purified enzyme source; from tissue; host or cells: rat liver mitochondrial membranes. The procedure: The inhibition of MAOA enzymatic activity (MAOA) was determined using rat liver mitochondrial membranes as a partially purified enzyme source. […] The reaction involves the conversion of the substrate to [^14 C] 5-hydroxyl indoleacetaldehyde+NH4^+. In brief, the enzyme is preincubated with the substances and the subtype specific blocker deprenyl (at 300 nM) for 60 minutes at 37° C. in 100 mM KPO4 (pH 7.2). Substrate is added and incubated for an additional 10 minutes. The reaction is terminated by the addition of 0.5 ml of 2M citric acid. […] Nitric oxide synthetase activity was measured using a binding assay (NOS). The receptors were made by partial purification of material from rat brain membranes. The radioligand used was [^3 H] L-N^G -Nitro-Arginine (NOARG) at a final concentration of 5 nM. Non-specific binding was determined using 100 μM of NOARG. The assay reactions were carried out in 50 mM Tris-HCl (pH 7.4) for 60 minutes at 25° C.

The target of data set [14] is T1, serotonin transporter. The conditions noted are these: cited from earlier work.
The conditions of data set [15]: oil preparations, exposed to light; cited from earlier work.
Data set [16] deals with β-adrenergic receptors. The conditions noted are these: rat frontal cortex, subchronic (250 mg/kg for 2 weeks; imipramine similar doses); cited from earlier work.
In data set [17] the target is Monoamine Oxidase A. The conditions noted are these: read-out: Inhibition of Monoamine Oxidase A Activity IC50; cited from earlier work.
Data set [18] deals with GABAA receptor. To be noted: read-out: Ki(nM) GABAA reference compounds; cited from earlier work.

T1 sequence (P31652 whole entry): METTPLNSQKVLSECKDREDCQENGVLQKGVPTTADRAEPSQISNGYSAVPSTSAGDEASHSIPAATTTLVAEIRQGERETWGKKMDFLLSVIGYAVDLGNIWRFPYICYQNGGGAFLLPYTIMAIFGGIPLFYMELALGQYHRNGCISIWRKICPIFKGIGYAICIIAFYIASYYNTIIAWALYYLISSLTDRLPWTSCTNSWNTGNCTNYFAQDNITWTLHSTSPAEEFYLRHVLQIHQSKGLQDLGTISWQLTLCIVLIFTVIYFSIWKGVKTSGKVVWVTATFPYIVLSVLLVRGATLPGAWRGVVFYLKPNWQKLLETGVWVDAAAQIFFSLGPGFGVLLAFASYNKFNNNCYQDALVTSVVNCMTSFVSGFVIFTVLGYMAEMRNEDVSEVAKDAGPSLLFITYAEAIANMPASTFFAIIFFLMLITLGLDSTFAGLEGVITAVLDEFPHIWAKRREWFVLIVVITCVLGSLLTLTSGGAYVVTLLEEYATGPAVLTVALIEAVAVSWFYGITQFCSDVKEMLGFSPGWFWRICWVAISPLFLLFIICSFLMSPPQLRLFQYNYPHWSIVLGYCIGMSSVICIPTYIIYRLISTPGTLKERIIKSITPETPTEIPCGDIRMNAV

Regarding `C[C@@H]1O[C@@H](OC[C@H]2O[C@@H](Oc3c(-c4ccc(O)c(O)c4)oc4cc(O)cc(O)c4c3=O)[C@H](O)[C@@H](O)[C@@H]2O)[C@H](O)[C@H](O)[C@H]1O` [Rutin, rutin], the “5-HT Reuptake (Table 8, words)” value in data set [1] is listed as “Negativee”.

In the case of `CCCC(=CC(N)C(=O)O)CP(=O)(O)O` (stereo not shown) [[^3 H]-CGP 39653], the dissociation constant (Kd) in data set [2] (radioligand, read-out: KD (binding affinity)) was 0.007 µM.

On to `Cc1cc(O)c2c(=O)c3c(O)cc(O)c4c5c(O)cc(O)c6c(=O)c7c(O)cc(CO)c8c1c2c(c34)c(c65)c78` [pseudohypericin], for which the stability in solution entry in data set [3] is “unstable in solution”. Besides, the “inhibition of herpes simplex” value in data set [4] is recorded as “inhibit”. In [5], the “inhibition of HIV-1” value is “inhibit”. For the same molecule, in data set [6], the “activity against murine cytomegalovirus” value is listed as “Activity has also been reported”. Besides, the “activity against Sindbis virus” value in data set [7] is recorded as “Activity has also been reported”. Besides, the “activity against equine infectious anemia virus” value in data set [8] was “Activity has also been reported”. The “protein kinase C IC50” value in data set [9] was 15 µg/mL.

With `O=c1c(O)c(-c2ccc(O)c(O)c2)oc2cc(O)cc(O)c12` [Quercetin, quercetin], the values for the IC50 in data set [10] and in data set [13] (read-out: MAOA (concentration)) were 2.4 µM and 8.2 µM, respectively. In addition, the “5-HT Reuptake (Table 8, words)” value in data set [1] is “Negative”. Besides, in data set [11], the ADNS is 45% and 27%. For the same molecule, the “M1 Central” value in data set [12] turned out to be 27%. Moreover, the “MAOA (Table 8, words)” value in data set [13] is on record as “verified the MAOA activity”.

As to `O=c1c(O[C@@H]2O[C@H](CO)[C@H](O)[C@H](O)[C@H]2O)c(-c2ccc(O)c(O)c2)oc2cc(O)cc(O)c12` [Hyperoside, hyperoside], in [1], the “5-HT Reuptake (Table 8, words)” value is reported as “Negative”.

In the case of `c1ccc2nc(N3CCNCC3)ccc2c1` [Quipazine maleate], the nH in data set [14] (Reference Data) is on record as 0.8550.

Turning to `CCC(C)C(=O)[C@]12C(=O)[C@](CC=C(C)C)(C[C@H](CC=C(C)C)[C@@]1(C)CCC=C(C)C)C(=O)C(CC=C(C)C)=C2O` (stereo partly shown) [Adhyperforin, adhyperforin], the degradation time in data set [15] was 14 days.

With `CN(C)CCCN1c2ccccc2CCc2ccccc21` [imipramine], the “down-regulation of β-adrenergic receptors” value in data set [16] is listed as 25%.

As to `CN[C@H](CC(=O)O)C(=O)O` [NMDA, N-methyl-D-aspartic acid], the Ki in [2] (read-out: Ki(nM) NMDA reference compounds) is 9300 nM.

For `c1cc2c(cc1C1CCCCC1)c1c3n2CCNC3CCC1` (stereo not shown) [Tetrindole Mesylate], the IC50 in [17] was 0.046 µM.

For the molecule `C[C@@H]1O[C@@H](Oc2c(-c3ccc(O)c(O)c3)oc3cc(O)cc(O)c3c2=O)[C@H](O)[C@H](O)[C@H]1O` [Quercitrin, quercitrin], in data set [1], the “5-HT Reuptake (Table 8, words)” value is reported as “Negative”. The inhibition at 100 µM turned out to be 39% in data set [1] (10^-4, read-out: Sero) and 40 ± 20% in data set [1] (10^-4 M, read-out: Sero % inhibition (PharmaPrint range)). Moreover, the ADNS in data set [11] turned out to be 45%. Further, in [11] (10^-4 M), the “AD,NS % inhibition (PharmaPrint range)” value came out at 45 ± 20%.

`NCc1cc(=O)[nH]o1` [Muscimol]: the Ki in [18] was 4.4 nM.

On to `O=C(O)C1=CCNCC1` [Isoguvacine], for which the Ki in [18] is 9.5 nM.

Turning to `O=c1[nH]oc2c1CCNC2` [THIP, 4,5,6,7Tetrahydroisoxazolo[5,4c]pyridin3(2H)one], the Ki in data set [18] was 25.1 nM.

On to `Cc1ccc2c(c1)c1c3n2CCNC3CCC1` (stereo not shown) [Pirlindole Mesylate], for which the IC50 in [17] is 0.016 µM.

`O=[N+]([O-])c1ccc2nc(N3CCNCC3)ccc2c1` [6-NO-Quipazine]: in [14] (Reference Data), the IC50 was 3.4 µM and the nH is 0.7400.

Take `O=c1c2cc(O)c(O)cc2oc2cc(O)c([C@@H]3O[C@H](CO)[C@@H](O)[C@H](O)[C@H]3O)c(O)c12` [Magniferin, mangiferin]: the “5-HT Reuptake (Table 8, words)” value in data set [1] is on record as “Negative”.

For `CC(C)OC(=O)[C@H]1[C@@H](c2ccc([125I])cc2)C[C@@H]2CC[C@H]1N2C` [[^125 I]-RTI-121], the Kd in [14] (radioligand) was 0.0011 µM.

The values are drawn from US6113907A, “Pharmaceutical grade St. John's Wort” (priority 1997, dated 2000).
